The source of these data is US10874684B2, “Liponucleotide-based therapy for ARDS” (Ohio State Innovation Foundation, priority 2016, dated 2020).

For assay [1], the system named is influenza A/WSN/33 (H1N1)-infected mice. The assay can be described thus: Effect of influenza infection and i.p. liponucleotide treatment on lung function. The following applies: for HR (bpm) / WET:DRY / SaO2 (%) / CST / RBASAL: day 6. Type of assay: in vivo, mouse. The text has this:
CDP-choline improved oxygenation. SaO2 increased from approximately 85% to approximately 96%. This is equivalent to an increase in PaO2 from approximately 65 mmHg to approximately 85 mmHg. It is also equivalent to an increase in O2 carrying capacity of blood (CaO2) from approximately 88% to approximately 97% of normal. Patients with an SaO2 of 96% or a […] would not require additional treatment

Assay [2] relates to influenza-infected mice. Nature of the assay: Treatment with CDP-choline precursors (choline, CTP) in influenza-infected mice, arterial oxygenation. Format: in vivo. As to conditions: day 6 post-influenza infection; daily i.p. 100 μg/mouse from 1-5 days post-infection; compared with CDP-choline. As for the experimental part: FIG. 16 is a plot showing effect of daily i.p. treatment with choline (100 μg/mouse), cytidine triphosphate (CTP, 100 μg/mouse), and choline+CTP from 1-5 days post-influenza infection on mouse O2 sats (SaO2) at day 6 post-influenza infection.

In assay [3] the test system is ATII cells from influenza A/WSN/33 (H1N1)-infected mice. Nature of the assay: Effect of influenza infection and CDP-choline treatment on ATII cell ultrastructure (transmission electron micrographs). Format: in vivo, mouse. The text has this:
FIG. 14 is a group of three transmission electron micrographs showing effects of CDP-choline treatment on ultrastructure of ATII cell lamellar bodies (composed of surfactant lipids and proteins). Relative to mock-infected controls, lamellar bodies in ATII cells from influenza A/WSN/33 (H1N1)-infected mice are smaller and have disordered lamellae.
FIG. 15 is a group of 3 transmission electron micrographs showing effects of influenza infection on ultrastructure of ATII cell mitochondria (Mi). Relative to mock-infected controls (left), Mi in ATII cells from A/WSN/33 (H1N1)-infected mice (center) are fewer in number, less electron dense, and have disordered membranes and cristae.

The subject of assay [4] is influenza-infected mice. The assay can be described thus: Effect of influenza infection and CDP-choline treatment on lung inflammation. Type of assay: in vivo. The following applies: day 6 flu; 100 μg/mouse i.p. daily from 1-5 days post-infection.
In assay [5] the test system is alveolar type II (ATII) epithelial cells isolated 6 days post-influenza infection. The assay can be described thus: Effect of influenza infection and CDP-choline treatment on mitochondrial function (Seahorse MitoStress test on isolated ATII cells). Format: in vivo, mouse. The protocol:
FIG. 17 is a plot showing effect of daily i.p. treatment with CDP-choline (CDP-CHO, 100 μg/mouse) from 1-5 days post-influenza infection on basal O2 consumption rate (OCR) of alveolar type II (ATII) epithelial cells isolated at 6 days post-mock infection or 6 days post-influenza infection and OCR after subsequent treatment of the same ATII cells with oligomycin (1 μM). **=P<0.005, #=P<0.001.
FIG. 18 is a plot showing effect of daily i.p. treatment with CDP-choline (CDP-CHO, 100 μg/mouse) from 1-5 days post-influenza infection on ATP production, non-mitochondrial (non-mt) respiration, and proton (H^+) leak of alveolar type II (ATII) epithelial cells isolated at 6 days post-mock infection or 6 days post-influenza infection. *=P<0.05, #=P<0.001.

For assay [6], the system named is mice with ARDS induced by intranasal bleomycin. The assay can be described thus: Bleomycin-induced ARDS in mice, i.p. liponucleotide treatment. Type of assay: in vivo. The following applies: day 7 after intranasal bleomycin 0.1 mg/mouse; daily i.p. from days 1-6.
Where [7] appears, read: influenza-infected mice, i.p. daily from 1-5 days post-infection.
Setting [8] is: influenza-infected mice, i.p. daily from 1-5 days post-infection, CDP-CHO/CDP-ETH 100 μg/mouse, CDP-DAG 10 μg/mouse.
[9] abbreviates: influenza-infected mice, 100 μg/mouse i.p. on day 5 only.
[10] abbreviates: day 6 flu, 100 μg/mouse i.p. daily from 1-5 days post-infection.
[11] abbreviates: ATII cells isolated 6 days post-influenza infection, Seahorse MitoStress, effect on influenza-induced impairment.

Entries after “also recorded” stand apart in the source; their conditions may differ. Marks after values point to notes of the source that are not given here.

For the compound `NCCOP(=O)(O)OP(=O)(O)OC[C@H]1O[C@@H](n2ccc(N)nc2=O)[C@H](O)[C@@H]1O` [CDP-ETH, CDP-ethanolamine], in assay [1] (setting [7]), the “HR (bpm)” value was found to be 540 ± 20 bpm and the “WET:DRY” value is reported as 6.5 ± 0.4. Moreover, the “SaO2 (%)” value in assay [1] (setting [8]) was 91.1 ± 1.5%.
Take `Nc1ccn([C@@H]2O[C@H](COP(=O)(O)OP(=O)(O)OP(=O)(O)O)[C@@H](O)[C@H]2O)c(=O)n1` [CTP, cytidine triphosphate]: in assay [2], the “beneficial effect on arterial oxygenation, mouse O2 sats (SaO2)” value is “cannot be reproduced”.
Regarding `C[N+](C)(C)CCOP(=O)(O)OP(=O)(O)OC[C@H]1O[C@@H](n2ccc(N)nc2=O)C(O)C1O` (some centres unmarked) [CDP-CHO, Cytidine diphosphate-choline], the “PaO2 equivalent after treatment” value in assay [1] (equivalent of SaO2 increase, from approximately 65 mmHg) is “approximately 85 mmHg”. Also, the “O2 carrying capacity of blood (CaO2) after treatment” value in assay [1] (equivalent of SaO2 increase, from approximately 88%) is reported as “approximately 97 % of normal”. In assay [1] (influenza-infected mice), the cardiac function entry is on record as “improved cardiac function”, the “effects of single dose treatment late in infection versus daily treatment” value is reported as “as good as those of daily treatment”, the lung function entry is listed as “better lung function” and the pulmonary edema entry is listed as “reduced pulmonary edema”. Besides, in assay [1] (setting [9]), the CST worked out at 0.05 ± 0.006, the “HR (bpm)” value was 550 ± 10 bpm, the RBASAL was determined as 1.63 ± 0.22 and the “SaO2 (%)” value is listed as 92.9 ± 1.5 %. In addition, the “WET:DRY” value in assay [1] (setting [9]) came to 6.2 ± 0.2. In assay [1] (setting [7]), the CST is given as 0.05 ± 0.002, the “HR (bpm)” value is recorded as 570 ± 10 bpm, the RBASAL is reported as 1.96 ± 0.12 and the “WET:DRY” value amounted to 6.2 ± 0.4. In assay [1] (setting [8]), the “SaO2 (%)” value came to 93.5 ± 1.0 %. The SaO2 after treatment entry in assay [1] (influenza-infected mice, increased from approximately 85%) was “approximately 96%”. In assay [3] (setting [10]), the “ATII CELL AREA (μm^2)” value is on record as 53.64 ± 5.63* μm^2, the “LAMELLAR BODIES/CELL” value was 8.1 ± 1.16, the “LAMELLAR BODY AREA (μm^2)” value is on record as 0.41 ± 0.04* μm^2 and the MITOCHONDRIAL/CELL was found to be 14.5 ± 1.78. The “MIT[…] (μm^2)” value in assay [3] (setting [10]) was 0.34 ± 0.01* μm^2. Moreover, the “ATII cell lamellar body morphology” value in assay [3] (transmission electron micrographs, A/WSN/33 (H1N1)-infected mice) is listed as “improves lamellar body morphology”. The “ATII cell mitochondria (Mi) morphology” value in assay [3] (transmission electron micrographs, A/WSN/33 (H1N1)-infected mice, listed as CDP-choline) is “more electron-dense and have more normal cristae; also recorded: display normal morphology”. Moreover, in assay [4], the “BALF ALVEOLAR MACS (×10^6/ml)” value was 1.08 ± 0.21 ×10^6/ml, the “BALF NEUTROPHILS (×10^6/ml)” value is 0.45 ± 0.07 ×10^6/ml, the “BALF PC” value was found to be 1.61 ± 0.45 and the “VIRAL TITER (log PFU/g)” value turned out to be 5.32 ± 0.07 log PFU/g. Also, the “basal O2 consumption rate (OCR), mitochondrial oxidative phosphorylation” value in assay [5] (ATII cells isolated 6 days post-influenza infection, 100 μg/mouse i.p. daily days 1-5, effect on influenza-induced impairment) is given as “reversed”. Moreover, in assay [5] (setting [11]), the ATP production entry is given as “reversed”, the “non-mitochondrial (non-mt) respiration” value was “reversed” and the “proton (H+) leak (coupling efficiency)” value is recorded as “reversed”. For the same compound, the “OCR after oligomycin (ATP synthase activity)” value in assay [5] (ATII cells isolated 6 days post-influenza infection, oligomycin 1 μM, effect on influenza-induced impairment) was “reversed”. Besides, in assay [5] (setting [10]), the “MITOCHONDRIAL MEMBRANE POTENTIAL (ψm; DilC1(5) MCF)” value is 10.14 ± 2.3* and the “MIT[…] PRODUCTION” value was 36.91 ± 6.82#. In assay [6], the “mouse O2 sats (SaO2), hypoxemia” value is recorded as “can attenuate hypoxemia” and the “mouse weight loss (% of starting body weight), cachexia” value is “no such beneficial effect”.
Regarding `CCCCCCCCCCCCCCCC(=O)OC[C@H](COP(=O)(O)OP(=O)(O)OC[C@H]1O[C@@H](n2ccc(N)nc2=O)[C@H](O)[C@@H]1O)OC(=O)CCCCCCCCCCCCCCC` [CDP-DAG, CDP-diacylglycerol], in assay [1] (setting [7]), the “HR (bpm)” value was found to be 600 ± 10 bpm and the “WET:DRY” value amounted to 5.8 ± 0.1. Also, in assay [1] (setting [8]), the “SaO2 (%)” value was 95.2 ± 1.6 %.
